Test results taken from patent publication US20220054384A1, “MICROBIOSTATIC SOAP THAT REDUCES THE TRANSMISSION OF MICROBES” (GPCP IP Holdings LLC, priority 2018, published 2022).

Key:
[1] = tested on: Staphylococcus aureus ATCC 6538 and Escherichia coli ATCC 15225; experiment: Bacteriostatic MIC of release agents (modified standard MIC protocol, tube growth then streak onto TSA plate); format: cell-based; settings: lower bacteriostatic limit (bacteriostatic MIC): no growth in tube, growth on TSA plate
From the text: Release agents for use in the described soaps and hard surface cleaners are those materials that can coat all or part of a microbe or spore wall, but not penetrate the cellular or spore wall, rendering the microbe unable to infect skin or reproduce at the time of application. Not only does the release agent coat the microbe, it also coats skin. Because the microbe coating and skin coating have similar charges, the microbe is repelled from the skin surface into the soap layer. After rinsing the soap, the material is disrupted and releases, allowing regrowth of the microbe. […] However, when the solution is swabbed onto a growth media plate, polymer disruption and release occur, allowing the microbe to resume growth. […] A series of compounds were tested to determine whether microbes exposed to these compositions and rinsed off were still viable to regrow. The standard MIC protocol (Internal NTC Microbiology Lab Method: MB-025) was followed for this work with some modifications. The organisms used were Staphylococcus aureus ATCC® 6538™ and Escherichia coli ATCC® 15225™ (94 TFM). All organisms were purchased from Microbiologics® and grown in the lab on Trypticase Soy Agar (TSA) at 35° C. The organisms were washed off of the agar into 0.1% peptone water and visually matched to a McFarland 0.5 Standard (equal to […]). Ten-fold serial dilutions were prepared for all chemicals tested in Mueller-Hinton II Broth (MH Broth). An initial 1:10 dilution in MH Broth was made and all subsequent dilutions were prepared by removing 1 mL from the previous dilution and transferring to a sterile MH Broth tube. For the initial screening, 1:10 serial dilutions were prepared through 1:1,000,000. One mL of the bacterial solution was added to each dilution tube and vortexed to mix. […] For subsequent round(s) of testing, the parts per million (ppm) of chemical was calculated and dilution tubes were prepared to bracket the ppm of growth/no-growth seen during the first round of testing. Each tube was prepared by adding in the calculated amount of MH Broth and test substance. The inoculation and incubation procedure was followed as stated above. […] For the second round of samples, each tube with no growth was streaked onto a Trypticase Soy Agar (TSA) plate to identify if the organism was still present in the tube but unable to grow in the presence of the chemical. All TSA plates were incubated for 18±4 hours at 37° C. and then observed for growth/no-growth.

[2] = tested on: Staphylococcus aureus ATCC 6538 and Escherichia coli ATCC 15225; experiment: as above; format: cell-based; settings: upper bacteriostatic concentration limit of release agent; no initial growth in solution but growth after swabbing onto growth media plate

Compound | Lower Limit from 24-hour growth (%) [1] [%] | Upper Limit from 1 min Exposure [2]
CCCCCCCCOC(=O)CC(C(=O)OCCCCCCCC)S(=O)(=O)[O-].[Na+] (stereo not shown) [Dioctyl sulfosuccinate sodium salt] | 5.0 | 5.0
CCCCCCCCCCCC(=O)NCCC[N+](C)(C)CC(=O)[O-] [Lauramidopropyle betaine] | 0.1 | 4.0
Cocamidopropyl betaine | 1.0 | 27.0
Cocamidopropyl hydroxy sultaine | 0.5 | 45.0
Disodium Cocamphodiacetate | 2.0 | 36.0
